From ChEMBL document CHEMBL3991601, “The target landscape of clinical kinase drugs” (Science, 2017)
Activity calls are given as the source filed them. For most assays here, no stated cut-off is given here; in the data, actives have a measured Kd and inactives only a lower limit.

How the values were obtained:
[1] = biological target: Serine/threonine-protein kinase N1 (Homo sapiens, UniProt Q16512)
[2] = biological target: T1, Serine/threonine-protein kinase Nek9 (Homo sapiens, UniProt Q8TD19)
T1 sequence (Q8TD19 whole entry): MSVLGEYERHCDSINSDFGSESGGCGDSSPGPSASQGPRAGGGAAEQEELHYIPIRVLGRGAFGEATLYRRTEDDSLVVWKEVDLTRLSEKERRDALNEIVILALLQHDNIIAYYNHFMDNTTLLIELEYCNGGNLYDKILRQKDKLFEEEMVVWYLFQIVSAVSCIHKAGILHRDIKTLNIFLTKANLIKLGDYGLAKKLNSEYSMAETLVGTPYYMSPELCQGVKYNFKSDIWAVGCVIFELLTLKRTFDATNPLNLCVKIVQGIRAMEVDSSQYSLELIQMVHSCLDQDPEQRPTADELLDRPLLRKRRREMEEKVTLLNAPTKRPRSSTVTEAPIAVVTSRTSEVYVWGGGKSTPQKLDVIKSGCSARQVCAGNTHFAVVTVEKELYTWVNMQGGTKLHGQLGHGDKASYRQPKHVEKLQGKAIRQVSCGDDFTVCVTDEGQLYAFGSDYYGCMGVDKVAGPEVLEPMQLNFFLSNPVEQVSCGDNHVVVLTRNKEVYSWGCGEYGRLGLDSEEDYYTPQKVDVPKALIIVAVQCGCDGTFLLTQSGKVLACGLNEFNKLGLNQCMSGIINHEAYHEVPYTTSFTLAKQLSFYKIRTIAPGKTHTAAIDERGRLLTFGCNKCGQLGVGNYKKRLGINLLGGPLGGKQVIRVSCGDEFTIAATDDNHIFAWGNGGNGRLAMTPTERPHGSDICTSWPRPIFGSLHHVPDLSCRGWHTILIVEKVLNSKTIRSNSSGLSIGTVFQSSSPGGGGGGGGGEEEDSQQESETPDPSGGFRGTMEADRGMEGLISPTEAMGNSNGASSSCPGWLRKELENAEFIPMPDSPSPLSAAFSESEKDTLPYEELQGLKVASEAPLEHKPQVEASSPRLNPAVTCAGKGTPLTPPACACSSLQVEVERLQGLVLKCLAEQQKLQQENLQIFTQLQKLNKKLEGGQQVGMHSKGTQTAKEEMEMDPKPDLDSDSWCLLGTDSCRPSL

[3] = biological target: Bone morphogenetic protein receptor type-1A (Homo sapiens, UniProt P36894)
[4] = biological target: Serine/threonine-protein kinase MRCK beta (Homo sapiens, UniProt Q9Y5S2)
[5] = biological target: Casein kinase II subunit alpha' (Homo sapiens, UniProt P19784)
Deoxycytidine kinase = Deoxycytidine kinase (Homo sapiens, UniProt P27707)
[6] = biological target: Casein kinase I isoform gamma-1 (Homo sapiens, UniProt Q9HCP0)
Scaffold protein ILK = biological target: T2, Scaffold protein ILK (Homo sapiens, UniProt Q13418)
T2 sequence (Q13418 whole entry): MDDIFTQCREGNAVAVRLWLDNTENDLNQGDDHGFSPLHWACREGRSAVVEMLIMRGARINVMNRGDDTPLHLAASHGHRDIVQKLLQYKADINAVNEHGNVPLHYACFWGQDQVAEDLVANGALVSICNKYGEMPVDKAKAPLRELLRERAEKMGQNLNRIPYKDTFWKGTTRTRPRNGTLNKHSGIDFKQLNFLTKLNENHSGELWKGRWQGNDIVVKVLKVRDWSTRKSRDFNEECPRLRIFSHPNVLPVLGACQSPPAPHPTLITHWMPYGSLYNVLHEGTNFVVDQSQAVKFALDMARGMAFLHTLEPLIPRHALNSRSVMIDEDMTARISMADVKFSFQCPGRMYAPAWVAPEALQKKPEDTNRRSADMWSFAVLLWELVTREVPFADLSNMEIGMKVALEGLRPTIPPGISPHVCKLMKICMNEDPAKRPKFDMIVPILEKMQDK

TGF-beta receptor type-1 = biological target: T3, TGF-beta receptor type-1 (Homo sapiens, UniProt P36897)
T3 sequence (P36897 whole entry): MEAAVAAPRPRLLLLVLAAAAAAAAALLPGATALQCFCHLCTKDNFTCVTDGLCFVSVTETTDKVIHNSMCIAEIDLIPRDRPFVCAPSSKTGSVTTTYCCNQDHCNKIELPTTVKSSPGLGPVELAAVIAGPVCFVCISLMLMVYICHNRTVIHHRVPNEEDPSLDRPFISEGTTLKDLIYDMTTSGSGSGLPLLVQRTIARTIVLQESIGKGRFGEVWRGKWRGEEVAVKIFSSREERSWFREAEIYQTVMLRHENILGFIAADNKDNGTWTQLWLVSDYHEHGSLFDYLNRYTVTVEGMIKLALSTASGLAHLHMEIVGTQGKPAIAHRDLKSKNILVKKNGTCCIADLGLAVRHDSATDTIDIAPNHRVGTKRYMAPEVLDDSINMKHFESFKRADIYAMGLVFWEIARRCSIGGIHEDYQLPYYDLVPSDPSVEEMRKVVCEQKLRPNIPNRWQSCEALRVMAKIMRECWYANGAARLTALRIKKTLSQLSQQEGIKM

Aurora kinase B = Aurora kinase B (Homo sapiens, UniProt Q96GD4)
[7] = biological target: Casein kinase I isoform alpha (Homo sapiens, UniProt P48729)
[8] = biological target: Tyrosine-protein kinase SYK (Homo sapiens, UniProt P43405)

Casein kinase I isoform gamma-1, sequence (Q9HCP0 whole entry, canonical isoform): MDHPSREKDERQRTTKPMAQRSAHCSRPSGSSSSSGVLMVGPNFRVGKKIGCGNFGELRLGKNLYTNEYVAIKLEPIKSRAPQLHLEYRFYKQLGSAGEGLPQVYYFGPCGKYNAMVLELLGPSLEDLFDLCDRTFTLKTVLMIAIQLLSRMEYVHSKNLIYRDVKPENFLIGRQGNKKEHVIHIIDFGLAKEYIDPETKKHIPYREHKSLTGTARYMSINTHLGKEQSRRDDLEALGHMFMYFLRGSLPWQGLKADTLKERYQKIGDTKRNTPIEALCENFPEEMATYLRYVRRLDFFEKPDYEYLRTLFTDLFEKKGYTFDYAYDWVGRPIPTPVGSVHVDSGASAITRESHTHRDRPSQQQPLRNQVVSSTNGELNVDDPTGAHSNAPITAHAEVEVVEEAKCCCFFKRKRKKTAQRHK
Deoxycytidine kinase, sequence (P27707 whole entry, canonical isoform): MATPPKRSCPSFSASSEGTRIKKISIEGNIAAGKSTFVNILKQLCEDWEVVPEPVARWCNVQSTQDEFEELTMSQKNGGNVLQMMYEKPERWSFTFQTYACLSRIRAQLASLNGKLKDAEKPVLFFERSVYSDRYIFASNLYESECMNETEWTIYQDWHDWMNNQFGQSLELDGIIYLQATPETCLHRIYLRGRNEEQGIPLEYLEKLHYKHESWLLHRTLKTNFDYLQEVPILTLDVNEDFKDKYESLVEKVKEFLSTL
Serine/threonine-protein kinase N1, sequence (Q16512 whole entry): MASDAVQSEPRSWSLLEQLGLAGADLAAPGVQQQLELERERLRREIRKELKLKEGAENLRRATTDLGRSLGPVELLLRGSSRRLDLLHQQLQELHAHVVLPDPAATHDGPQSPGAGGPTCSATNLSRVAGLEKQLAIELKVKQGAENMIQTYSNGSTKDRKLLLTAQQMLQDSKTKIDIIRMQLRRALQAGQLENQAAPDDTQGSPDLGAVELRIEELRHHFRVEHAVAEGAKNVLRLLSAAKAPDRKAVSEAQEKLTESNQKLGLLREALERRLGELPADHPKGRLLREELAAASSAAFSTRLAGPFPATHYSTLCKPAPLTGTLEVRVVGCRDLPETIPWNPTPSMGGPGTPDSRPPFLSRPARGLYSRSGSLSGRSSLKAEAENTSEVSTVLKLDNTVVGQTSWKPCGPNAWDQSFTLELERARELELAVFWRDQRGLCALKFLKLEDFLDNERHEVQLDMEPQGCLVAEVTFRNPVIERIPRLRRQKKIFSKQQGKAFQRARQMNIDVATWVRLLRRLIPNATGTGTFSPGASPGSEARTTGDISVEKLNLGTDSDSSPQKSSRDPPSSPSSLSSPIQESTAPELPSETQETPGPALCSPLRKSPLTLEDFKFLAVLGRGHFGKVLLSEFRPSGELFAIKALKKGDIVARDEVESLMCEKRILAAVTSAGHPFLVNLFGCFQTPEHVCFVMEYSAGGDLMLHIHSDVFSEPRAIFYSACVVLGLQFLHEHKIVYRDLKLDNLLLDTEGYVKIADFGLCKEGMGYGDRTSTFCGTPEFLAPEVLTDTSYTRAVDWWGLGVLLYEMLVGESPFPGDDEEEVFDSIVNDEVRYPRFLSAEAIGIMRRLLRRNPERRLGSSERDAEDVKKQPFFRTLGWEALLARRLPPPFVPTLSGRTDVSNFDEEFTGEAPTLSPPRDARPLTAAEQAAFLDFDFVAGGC
Aurora kinase B, sequence (Q96GD4 whole entry, canonical isoform): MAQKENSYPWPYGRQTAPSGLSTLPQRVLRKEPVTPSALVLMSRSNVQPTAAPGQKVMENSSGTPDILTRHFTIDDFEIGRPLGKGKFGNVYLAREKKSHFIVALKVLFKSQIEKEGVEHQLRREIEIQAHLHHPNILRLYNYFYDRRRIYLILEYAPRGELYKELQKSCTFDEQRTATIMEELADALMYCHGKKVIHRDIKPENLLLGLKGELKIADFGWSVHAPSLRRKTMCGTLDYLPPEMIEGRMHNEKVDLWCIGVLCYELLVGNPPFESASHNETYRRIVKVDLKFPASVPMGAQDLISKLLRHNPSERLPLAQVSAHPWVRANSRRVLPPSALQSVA
Casein kinase II subunit alpha', sequence (P19784 whole entry): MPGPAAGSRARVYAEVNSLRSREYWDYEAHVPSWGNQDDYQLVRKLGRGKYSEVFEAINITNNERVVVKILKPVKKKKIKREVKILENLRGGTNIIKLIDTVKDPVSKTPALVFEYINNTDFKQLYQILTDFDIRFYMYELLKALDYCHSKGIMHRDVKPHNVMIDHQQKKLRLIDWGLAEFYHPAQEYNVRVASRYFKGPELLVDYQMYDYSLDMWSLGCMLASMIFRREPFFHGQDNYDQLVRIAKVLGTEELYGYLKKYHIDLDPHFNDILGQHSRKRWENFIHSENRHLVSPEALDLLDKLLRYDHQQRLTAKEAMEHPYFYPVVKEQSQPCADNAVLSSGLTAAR
Serine/threonine-protein kinase MRCK beta, sequence (Q9Y5S2 whole entry): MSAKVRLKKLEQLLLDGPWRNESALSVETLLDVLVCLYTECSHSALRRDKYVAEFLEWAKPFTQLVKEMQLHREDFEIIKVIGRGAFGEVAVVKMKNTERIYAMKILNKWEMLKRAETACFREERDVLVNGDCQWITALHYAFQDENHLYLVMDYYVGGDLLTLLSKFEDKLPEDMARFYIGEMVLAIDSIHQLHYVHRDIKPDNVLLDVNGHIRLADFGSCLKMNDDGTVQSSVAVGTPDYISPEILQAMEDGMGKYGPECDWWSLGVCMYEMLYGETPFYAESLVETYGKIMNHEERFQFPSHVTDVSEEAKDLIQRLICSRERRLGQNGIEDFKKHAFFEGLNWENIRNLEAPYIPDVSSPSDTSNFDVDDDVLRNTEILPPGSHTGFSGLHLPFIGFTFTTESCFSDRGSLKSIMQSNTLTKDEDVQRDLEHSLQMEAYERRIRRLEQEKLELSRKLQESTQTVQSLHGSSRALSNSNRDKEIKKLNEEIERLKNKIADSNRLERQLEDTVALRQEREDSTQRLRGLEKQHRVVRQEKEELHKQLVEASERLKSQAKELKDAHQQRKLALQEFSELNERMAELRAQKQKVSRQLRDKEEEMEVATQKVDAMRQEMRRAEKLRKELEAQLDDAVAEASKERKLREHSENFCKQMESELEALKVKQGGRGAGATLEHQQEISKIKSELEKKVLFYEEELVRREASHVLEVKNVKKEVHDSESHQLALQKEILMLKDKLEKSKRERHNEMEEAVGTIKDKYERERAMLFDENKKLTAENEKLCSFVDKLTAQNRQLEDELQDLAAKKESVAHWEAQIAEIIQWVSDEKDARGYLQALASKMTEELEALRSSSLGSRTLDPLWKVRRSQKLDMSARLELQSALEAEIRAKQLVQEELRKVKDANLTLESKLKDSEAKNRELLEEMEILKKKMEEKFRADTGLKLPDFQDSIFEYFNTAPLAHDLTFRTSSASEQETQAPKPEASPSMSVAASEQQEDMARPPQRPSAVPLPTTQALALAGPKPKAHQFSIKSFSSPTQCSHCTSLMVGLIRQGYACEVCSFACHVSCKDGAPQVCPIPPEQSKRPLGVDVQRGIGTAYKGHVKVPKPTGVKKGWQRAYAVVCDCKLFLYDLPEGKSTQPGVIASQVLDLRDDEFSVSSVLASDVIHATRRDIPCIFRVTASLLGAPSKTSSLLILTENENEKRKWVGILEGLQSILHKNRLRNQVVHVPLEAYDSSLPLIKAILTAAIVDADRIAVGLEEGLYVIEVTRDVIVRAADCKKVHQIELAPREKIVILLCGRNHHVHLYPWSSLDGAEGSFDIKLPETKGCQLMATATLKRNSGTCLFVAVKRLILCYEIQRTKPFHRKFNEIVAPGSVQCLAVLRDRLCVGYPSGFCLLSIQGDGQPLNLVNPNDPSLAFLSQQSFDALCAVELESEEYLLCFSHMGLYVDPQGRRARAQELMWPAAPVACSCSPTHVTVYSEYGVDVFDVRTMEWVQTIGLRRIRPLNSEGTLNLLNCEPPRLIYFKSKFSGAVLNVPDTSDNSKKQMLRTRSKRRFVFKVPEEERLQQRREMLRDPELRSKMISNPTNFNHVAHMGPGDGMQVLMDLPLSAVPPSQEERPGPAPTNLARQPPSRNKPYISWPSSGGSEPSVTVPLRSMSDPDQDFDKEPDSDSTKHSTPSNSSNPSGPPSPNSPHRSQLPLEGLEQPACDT
Casein kinase I isoform alpha, sequence (P48729 whole entry, canonical isoform): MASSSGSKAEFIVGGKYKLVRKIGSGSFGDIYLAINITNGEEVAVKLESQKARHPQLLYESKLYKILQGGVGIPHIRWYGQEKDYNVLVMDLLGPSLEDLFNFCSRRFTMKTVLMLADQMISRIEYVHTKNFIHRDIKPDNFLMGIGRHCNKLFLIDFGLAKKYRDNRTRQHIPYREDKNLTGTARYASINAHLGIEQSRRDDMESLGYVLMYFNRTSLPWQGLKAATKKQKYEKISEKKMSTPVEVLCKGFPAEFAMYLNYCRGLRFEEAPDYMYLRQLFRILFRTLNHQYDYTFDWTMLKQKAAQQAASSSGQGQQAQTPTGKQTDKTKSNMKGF
Bone morphogenetic protein receptor type-1A, sequence (P36894 whole entry): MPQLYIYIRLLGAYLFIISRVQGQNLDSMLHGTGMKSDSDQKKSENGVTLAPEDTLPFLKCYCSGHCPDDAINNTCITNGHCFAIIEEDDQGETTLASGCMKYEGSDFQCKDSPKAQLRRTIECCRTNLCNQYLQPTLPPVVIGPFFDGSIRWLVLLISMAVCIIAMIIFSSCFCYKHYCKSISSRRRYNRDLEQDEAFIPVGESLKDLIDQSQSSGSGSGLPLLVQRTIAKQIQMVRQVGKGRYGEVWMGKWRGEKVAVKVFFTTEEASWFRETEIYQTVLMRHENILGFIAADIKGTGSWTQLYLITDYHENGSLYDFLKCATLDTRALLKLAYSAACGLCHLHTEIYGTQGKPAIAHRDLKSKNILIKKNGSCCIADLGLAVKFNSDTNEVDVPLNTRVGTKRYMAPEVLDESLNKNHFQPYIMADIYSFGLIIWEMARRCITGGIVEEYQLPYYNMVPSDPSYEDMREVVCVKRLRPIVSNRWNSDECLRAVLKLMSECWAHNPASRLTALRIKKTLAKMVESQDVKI

Structure (SMILES) | Kd [1] | Kd [3] | Kd [4] | Kd (Deoxycytidine kinase) | Kd [6] | Kd (Scaffold protein ILK) | Kd (TGF-beta receptor type-1) | Kd [7] | Kd [8] | Kd [2] | Kd [5] | Kd (Aurora kinase B)
C=CCn1c(=O)c2cnc(Nc3ccc(N4CCN(C)CC4)cc3)nc2n1-c1cccc(C(C)(C)O)n1 [ADAVOSERTIB] | > 30 µM (inactive) | > 30 µM (inactive) | > 30 µM (inactive) | > 30 µM (inactive) | > 30 µM (inactive) | > 30 µM (inactive) | > 30 µM (inactive) |  |  | > 30 µM (inactive) | 0.412 µM (active) | 
S=C(NCc1ccc2c(c1)OCO2)N1CCN(c2ncnc3c2oc2ccccc23)CC1 [AMUVATINIB] | > 30 µM (inactive) | > 30 µM (inactive) | > 30 µM (inactive) | > 30 µM (inactive) |  | > 30 µM (inactive) | > 30 µM (inactive) | > 30 µM (inactive) | > 30 µM (inactive) | > 30 µM (inactive) | > 30 µM (inactive) | > 30 µM (inactive)
C[C@@]1(C(=O)Nc2ccc(F)nc2)CCCN1c1nc(Nc2cc(C3CC3)n[nH]2)c2cccn2n1 [BMS-754807] |  |  |  | > 30 µM (inactive) |  | > 30 µM (inactive) |  |  |  |  |  | 
Cn1c(=O)n(-c2ccc(C(C)(C)C#N)cc2)c2c3cc(-c4cnc5ccccc5c4)ccc3ncc21 [DACTOLISIB] | > 30 µM (inactive) | > 30 µM (inactive) | > 30 µM (inactive) | > 30 µM (inactive) | > 30 µM (inactive) | > 30 µM (inactive) | > 30 µM (inactive) |  | > 30 µM (inactive) | > 30 µM (inactive) | > 30 µM (inactive) | 
O=S(=O)(c1cccc2cnccc12)N1CCCNCC1 [FASUDIL] | 0.841 µM (active) | > 30 µM (inactive) | > 30 µM (inactive) | > 30 µM (inactive) | > 30 µM (inactive) | > 30 µM (inactive) | > 30 µM (inactive) |  | > 30 µM (inactive) | > 30 µM (inactive) | > 30 µM (inactive) | 
COc1cc(Nc2ncc(F)c(Nc3ccc4c(n3)N(COP(=O)(O)O)C(=O)C(C)(C)O4)n2)cc(OC)c1OC [FOSTAMATINIB] | > 30 µM (inactive) | > 30 µM (inactive) | > 30 µM (inactive) | > 30 µM (inactive) | > 30 µM (inactive) | > 30 µM (inactive) | > 30 µM (inactive) | > 30 µM (inactive) |  | 0.041 µM (active) | > 30 µM (inactive) | 
C[C@]1(O)C[C@@H](c2nc(-c3ccc4ccc(-c5ccccc5)nc4c3)c3c(N)nccn32)C1 [LINSITINIB] | > 30 µM (inactive) | > 30 µM (inactive) | > 30 µM (inactive) | > 30 µM (inactive) |  |  | > 30 µM (inactive) |  |  | > 30 µM (inactive) | > 30 µM (inactive) | 
N#CCNC(=O)c1ccc(-c2ccnc(Nc3ccc(N4CCOCC4)cc3)n2)cc1 [MOMELOTINIB] | > 30 µM (inactive) | > 30 µM (inactive) |  | > 30 µM (inactive) |  | > 30 µM (inactive) | > 30 µM (inactive) | > 30 µM (inactive) | > 30 µM (inactive) | 0.474 µM (active) | 0.302 µM (active) | > 30 µM (inactive)
CC1(C)CNc2cc(NC(=O)c3cccnc3NCc3ccncc3)ccc21 [MOTESANIB] |  |  |  | > 30 µM (inactive) |  | > 30 µM (inactive) |  |  |  |  |  | 
CN(c1ncccc1CNc1nc(Nc2ccc3c(c2)CC(=O)N3)ncc1C(F)(F)F)S(C)(=O)=O [PF-00562271] | 7.96 µM (active) | > 30 µM (inactive) | > 30 µM (inactive) | > 30 µM (inactive) |  | > 30 µM (inactive) | > 30 µM (inactive) |  |  | > 30 µM (inactive) | 0.998 µM (active) | 1.04 µM (active)
CC(C)CC(=O)Nc1[nH]nc2c1CN(C(=O)C1CCN(C)CC1)C2(C)C [PHA-793887] |  | > 30 µM (inactive) | > 30 µM (inactive) | > 30 µM (inactive) |  | > 30 µM (inactive) | > 30 µM (inactive) | > 30 µM (inactive) | > 30 µM (inactive) | > 30 µM (inactive) | > 30 µM (inactive) | > 30 µM (inactive)
Cn1cnc2c(F)c(Nc3ccc(Br)cc3Cl)c(C(=O)NOCCO)cc21 [SELUMETINIB] |  |  |  | > 30 µM (inactive) |  | > 30 µM (inactive) |  |  |  |  |  | 
O=C(O)c1ccc2c(c1)nc(Nc1cccc(Cl)c1)c1ccncc12 [SILMITASERTIB] | 20.4 µM (active) | > 30 µM (inactive) | > 30 µM (inactive) | > 30 µM (inactive) | > 30 µM (inactive) | > 30 µM (inactive) | > 30 µM (inactive) | > 30 µM (inactive) | > 30 µM (inactive) | > 30 µM (inactive) |  | 

Second part, led by results:

Kd [1] | Kd [3] | Kd [4] | Kd (Deoxycytidine kinase) | Kd [6] | Kd (Scaffold protein ILK) | Kd (TGF-beta receptor type-1) | Kd [7] | Kd [8] | Structure (SMILES) | Kd [2] | Kd [5] | Kd (Aurora kinase B)
 |  |  | > 30 µM (inactive) |  | > 30 µM (inactive) |  |  |  | CN(C)C/C=C/C(=O)Nc1cc2c(Nc3ccc(F)c(Cl)c3)ncnc2cc1O[C@H]1CCOC1 [AFATINIB] |  |  | 
> 30 µM (inactive) | > 30 µM (inactive) | > 30 µM (inactive) | > 30 µM (inactive) | > 30 µM (inactive) |  | > 30 µM (inactive) |  | > 30 µM (inactive) | CCN(CCCOc1ccc2c(Nc3cc(CC(=O)Nc4cccc(F)c4)n[nH]3)ncnc2c1)CCOP(=O)(O)O [BARASERTIB] | > 30 µM (inactive) | 1.95 µM | 
> 30 µM (inactive) | > 30 µM (inactive) | > 30 µM (inactive) | > 30 µM (inactive) |  | > 30 µM (inactive) | > 30 µM (inactive) | > 30 µM (inactive) | > 30 µM (inactive) | COc1ccc(-c2ccc3ncc4c(c3c2)n(-c2ccc(N3CCNCC3)c(C(F)(F)F)c2)c(=O)n4C)cn1 [BGT-226 FREE BASE] | > 30 µM (inactive) | 8.49 µM (active) | > 30 µM (inactive)
> 30 µM (inactive) | > 30 µM (inactive) | > 30 µM (inactive) | > 30 µM (inactive) | > 30 µM (inactive) | > 30 µM (inactive) | > 30 µM (inactive) | > 30 µM (inactive) | > 30 µM (inactive) | COc1cc2nccc(Oc3ccc(NC(=O)C4(C(=O)Nc5ccc(F)cc5)CC4)cc3)c2cc1OC [CABOZANTINIB] | > 30 µM (inactive) | > 30 µM (inactive) | 
 |  |  | > 30 µM (inactive) |  | > 30 µM (inactive) |  |  |  | COc1cc2c(Oc3ccc4[nH]c(C)cc4c3F)ncnc2cc1OCCCN1CCCC1 [CEDIRANIB] |  |  | 
 |  |  | > 30 µM (inactive) |  | > 30 µM (inactive) |  |  |  | COc1cc2c(N3CCN(C(=O)Nc4ccc(OC(C)C)cc4)CC3)ncnc2cc1OCCCN1CCCCC1 [TANDUTINIB] |  |  | 
